Experimental data published in patent publication US9745291B2, “PRMT5 inhibitors containing a dihydro- or tetrahydroisoquinoline and uses thereof” (Epizyme, Inc., priority 2012, dated 2017).

Molecular target: PRMT5/MEP50 (Homo sapiens (Human), UniProt O14744)
Test: PRMT5 Biochemical Assay (PRMT5/MEP50 enzyme assay on peptide substrate, 3H-SAM Flashplate)
Settings: PRMT5 biochemical assay; read-out: Biochemical IC50
Description: S-adenosylmethionine (SAM), S-adenosylhomocysteine (SAH), bicine, KCl, Tween20, dimethylsulfoxide (DMSO), bovine skin gelatin (BSG), and Tris(2-carboxyethyl)phosphine hydrochloride solution (TCEP) were purchased from Sigma-Aldrich at the highest level of purity possible. ^3H-SAM was purchase from American Radiolabeled Chemicals with a specific activity of 80 Ci/mmol. 384-well streptavidin Flashplates were purchased from PerkinElmer.
Peptide representative of human histone H4 residues 1-15 was synthesized with a C-terminal linker-affinity tag motif and a C-terminal amide cap by 21st Century Biochemicals. […] The sequence was Ac-[…][K-Biot]-amide (SEQ ID NO.:3).
Full-length human MEP50 (NM_024102) clone was amplified from a human testis cDNA library incorporating a 5′ sequence encoding a 6-histidine tag (MHHHHHH)(SEQ ID NO.:5) fused directly to Arg 2 of MEP50. The amplified genes were sublconed into pENTR/D/TEV (Life Technologies) and subsequently transferred by Gateway™ attL×attR recombination to pDEST8 baculvirus expression vector (Life Technologies).
Recombinant baculovirus and Baculovirus-Infected Insect Cells (BIIC) were generated according to Bac-to-Bac kit instructions (Life Technologies) and Wasilko, 2006, respectively. Protein over-expression was accomplished by infecting exponentially growing Spodoptera frugiperda (SF9) cell culture at 1.2×10^6 cell/ml with a 5000 fold dilution of BIIC stock. Infections were carried out at 27° C. for 72 hours, harvested by centrifugation, and stored at −80° C. for purification.
Flag-PRMT5/6His-MeP50 was eluted with 300 mM Imidazole in the same buffer. […] Reference: Wasilko, D. J. and S. E. Lee: “TIPS: titerless infected-cells preservation and scale-up” Bioprocess J., 5 (2006), pp. 29-32.
General Procedure for PRMT5/MEP50 Enzyme Assays on Peptide Substrates.
The assays were all performed in a buffer consisting of 20 mM Bicine (pH=7.6), 1 mM TCEP, 0.005% BSG, and 0.002% Tween20, prepared on the day of use. Compounds in 100% DMSO (1 ul) were spotted into a polypropylene 384-well V-bottom plates (Greiner) using a Platemate Plus outfitted with a 384-channel head (Thermo Scientific). DMSO (1 ul) was added to Columns 11, 12, 23, 24, rows A-H for the maximum signal control and 1 ul of SAH, a known product and inhibitor of PRMT5/MEP50, was added to columns 11, 12, 23, 24, rows I-P for the minimum signal control. A cocktail (40 ul) containing the PRMT5/MEP50 enzyme and the peptide was added by Multidrop Combi (Thermo-Fisher). The compounds were allowed to incubate with PRMT5/MEP50 for 30 min at 25 degrees Celsius, then a cocktail (10 ul) containing ^3H-SAM was added to initiate the reaction (final volume=51 ul).

PRMT5/MEP50, sequence (O14744 other isoform, or with tags, fused parts or gaps): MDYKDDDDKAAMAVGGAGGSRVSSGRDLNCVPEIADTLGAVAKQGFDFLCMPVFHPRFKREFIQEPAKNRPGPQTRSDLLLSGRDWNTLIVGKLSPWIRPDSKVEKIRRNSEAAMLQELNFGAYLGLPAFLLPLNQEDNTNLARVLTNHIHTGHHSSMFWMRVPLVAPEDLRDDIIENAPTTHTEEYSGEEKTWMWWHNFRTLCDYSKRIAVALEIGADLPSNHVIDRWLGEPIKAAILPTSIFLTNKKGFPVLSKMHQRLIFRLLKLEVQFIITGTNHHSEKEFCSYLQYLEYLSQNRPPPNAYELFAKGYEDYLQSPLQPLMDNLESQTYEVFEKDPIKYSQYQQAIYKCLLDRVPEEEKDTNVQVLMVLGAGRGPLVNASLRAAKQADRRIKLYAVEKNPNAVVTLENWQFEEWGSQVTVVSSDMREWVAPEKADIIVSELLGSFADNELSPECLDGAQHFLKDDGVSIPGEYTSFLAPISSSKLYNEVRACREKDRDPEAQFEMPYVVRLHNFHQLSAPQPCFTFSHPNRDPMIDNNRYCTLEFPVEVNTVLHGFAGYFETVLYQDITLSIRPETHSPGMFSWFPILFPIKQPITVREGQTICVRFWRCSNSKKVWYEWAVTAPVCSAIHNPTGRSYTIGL
PRMT5/MEP50, sequence (Q9BQA1 other isoform, or with tags, fused parts or gaps partner): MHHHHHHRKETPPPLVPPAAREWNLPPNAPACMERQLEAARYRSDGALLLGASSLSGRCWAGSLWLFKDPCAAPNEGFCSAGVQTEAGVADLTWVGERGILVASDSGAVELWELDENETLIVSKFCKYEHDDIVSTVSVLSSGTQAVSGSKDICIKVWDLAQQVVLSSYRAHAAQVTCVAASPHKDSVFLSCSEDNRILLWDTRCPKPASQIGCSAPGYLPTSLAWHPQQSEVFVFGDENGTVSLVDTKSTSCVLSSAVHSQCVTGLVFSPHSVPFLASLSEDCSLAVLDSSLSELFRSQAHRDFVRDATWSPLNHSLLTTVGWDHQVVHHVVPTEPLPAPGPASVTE

| SMILES | IC50 [nM] |
| --- | --- |
| CS(=O)(=O)N1CCc2c(cccc2OCC(=O)NCC(O)CN2CCc3ccccc3C2)C1 (centres unmarked) [Compound 102, N-(3-(3,4-dihydroisoquinolin-2(1H)-yl)-2-hydroxypropyl)-2-((2-(methylsulfonyl)-1,2,3,4-tetrahydroisoquinolin-5-yl)oxy)acetamide] | < 100 |
| O=C(COc1ccccc1C1CCNCC1)NCC(O)CN1CCc2ccccc2C1 (centres unmarked) [Compound 103] | < 100 |
| CN(C)c1ccc2cccc(OCC(=O)NC[C@@H](O)CN3CCc4ccccc4C3)c2n1 [Compound 105] | < 100 |
| O=C(COc1ccccc1S(=O)(=O)N1CCNCC1)NCC(O)CN1CCc2ccccc2C1 (centres unmarked) [Compound 107] | < 100 |
| CN1CCN(S(=O)(=O)c2ccccc2OCC(=O)NCC(O)CN2CCc3ccccc3C2)CC1 (centres unmarked) [Compound 108] | < 100 |
| CN(C)S(=O)(=O)c1ccccc1OCC(=O)NCC(O)CN1CCc2ccccc2C1 (centres unmarked) [Compound 109] | < 100 |
| O=C(COc1ccccc1S(=O)(=O)N1CCCC1)NCC(O)CN1CCc2ccccc2C1 (centres unmarked) [Compound 110] | < 100 |
| O=C(COc1ccccc1S(=O)(=O)N1CCC(O)C1)NCC(O)CN1CCc2ccccc2C1 (centres unmarked) [Compound 111] | < 100 |
| O=C(COc1cccc2c1CNCC2)NCC(O)CN1CCc2ccccc2C1 (centres unmarked) [Compound 119] | < 100 |
| CNS(=O)(=O)c1ccccc1OCC(=O)NCC(O)CN1CCc2ccccc2C1 (centres unmarked) [Compound 123] | < 100 |
| CC(Oc1ccccc1S(N)(=O)=O)C(=O)NCC(O)CN1CCc2ccccc2C1 (centres unmarked) [Compound 126] | > 50000 |
| CC(=O)Nc1cccnc1OCC(=O)NCC(O)CN1CCc2ccccc2C1 (centres unmarked) [Compound 128] | > 50000 |
| CN1CCCC(c2ccccc2OCC(=O)NCC(O)CN2CCc3ccccc3C2)C1 (centres unmarked) [Compound 130] | < 100 |
| CN(C)c1cccnc1OCC(=O)NCC(O)CN1CCc2ccccc2C1 (centres unmarked) [Compound 133] | > 10000 |
| CS(=O)(=O)Nc1ncccc1OCC(=O)NCC(O)CN1CCc2ccccc2C1 (centres unmarked) [Compound 139] | > 10000 |
| O=C(COc1cccc2cccnc12)NCC(O)CN1Cc2ccccc2C(F)(F)C1 (centres unmarked) [Compound 144] | > 10000 |

| SMILES | IC50 [nM] |
| --- | --- |
| Cc1cn(C)c2cccc(OCC(=O)NCC(O)CN3CCc4ccccc4C3)c12 (centres unmarked) [Compound 146] | < 100 |
| CC(=O)Nc1ncccc1OCC(=O)NCC(O)CN1CCc2ccccc2C1 (centres unmarked) [Compound 147] | > 10000 |
| CC(=O)Nc1cncc(OCC(=O)NCC(O)CN2CCc3ccccc3C2)c1 (centres unmarked) [Compound 148] | > 10000 |
| O=C(COc1ccccc1S(=O)(=O)N1CCOCC1)NCC(O)CN1CCc2ccccc2C1 (centres unmarked) [Compound 149] | < 100 |
| Cn1cnc(-c2ccccc2OCC(=O)NCC(O)CN2CCc3ccccc3C2)c1 (centres unmarked) [Compound 153] | < 100 |
| O=C(COc1cccc2cnncc12)NCC(O)CN1CCc2ccccc2C1 (centres unmarked) [Compound 154] | 1000 to 10000 |
| CN(c1ccccc1OCC(=O)NCC(O)CN1CCc2ccccc2C1)S(C)(=O)=O (centres unmarked) [Compound 155] | < 100 |
| Cn1cncc1-c1ccccc1OCC(=O)NCC(O)CN1CCc2ccccc2C1 (centres unmarked) [Compound 156] | 1000 to 10000 |
| CC(Oc1ccccc1NS(C)(=O)=O)C(=O)NCC(O)CN1CCc2ccccc2C1 (centres unmarked) [Compound 157] | 1000 to 10000 |
| Cc1nn(C)c2cccc(OCC(=O)NCC(O)CN3CCc4ccccc4C3)c12 (centres unmarked) [Compound 158] | < 100 |
| Cn1ncc2ccc(OCC(=O)NC[C@H](O)CN3CCc4ccccc4C3)cc21 [Compound 159] | < 100 |
| Cn1ncc2ccc(OCC(=O)NC[C@@H](O)CN3CCc4ccccc4C3)cc21 [Compound 160] | 101 to 1000 |
| O=C(COc1cncc(C(=O)N2CCOCC2)c1)NCC(O)CN1CCc2ccccc2C1 (centres unmarked) [Compound 161] | 101 to 1000 |
| CC(=O)Nc1ccncc1OCC(=O)NCC(O)CN1CCc2ccccc2C1 (centres unmarked) [Compound 162] | 1000 to 10000 |
| Cc1cn(C)c2cccc(OCC(=O)NC[C@H](O)CN3CCc4ccccc4C3)c12 [Compound 163] | < 100 |
| Cc1cn(C)c2cccc(OCC(=O)NC[C@@H](O)CN3CCc4ccccc4C3)c12 [Compound 164] | < 100 |
